# Experimental data: patent US7094754B2, “Anti-aging and wound healing compounds” (Kimberly-Clark Worldwide, Inc., priority 2001, dated 2006)
# Molecular target: pro-MMP-9 (Homo sapiens, UniProt P14780)
# Assay: Anti-activation (splicing) assay, pro-MMP-9 with stromilysin, HPLC
# Format: biochemical
# Details: 0.5 μM or 1.0 μM peptide, 80 minute time course
# Protocol: FIG. 12 illustrates the conversion of pro-MMP-9 into N-terminal and C-terminal domains by stromilysin. […] At the times indicated, an aliquot was removed and subjected to HPLC. The pro-MMP peak area was integrated and was set to 100 percent for the zero time point sample.
# The assay measures how much proenzyme is converted into mature matrix metalloproteinase. Proenzyme pro-MMP-9 (100 μg) was mixed with 0.5 μg of stromilysin in PBS. The reaction was incubated at 35° C. Aliquots were removed from the reaction over an 80 minute time course. […] The zero (injection) time point was a single peak that elutes from the column in approximately 750 seconds. This peak reduces in size as a function of time, and two new peaks appear. The first peak elutes at approximately 800 seconds, and represents the mature form of MMP-9. The second peak elutes at approximately 1100 seconds, and corresponds to the N-terminal pro-domain fragment. Peak areas were determined by integrating over the elution profile, and the percent area changes were plotted.
# The first peak, eluting at approximately 700 seconds, is pro-MMP-9. As the splicing reaction proceeds, this peak decreases in intensity (as marked with the downwards arrow), and two new peaks appear. The first new peak, eluting at approximately 800 seconds, is mature and active MMP-9. The second new peak, eluting at approximately 1050 seconds, is the prodomain. […]
# Sequence of pro-MMP-9 (P14780 20-707): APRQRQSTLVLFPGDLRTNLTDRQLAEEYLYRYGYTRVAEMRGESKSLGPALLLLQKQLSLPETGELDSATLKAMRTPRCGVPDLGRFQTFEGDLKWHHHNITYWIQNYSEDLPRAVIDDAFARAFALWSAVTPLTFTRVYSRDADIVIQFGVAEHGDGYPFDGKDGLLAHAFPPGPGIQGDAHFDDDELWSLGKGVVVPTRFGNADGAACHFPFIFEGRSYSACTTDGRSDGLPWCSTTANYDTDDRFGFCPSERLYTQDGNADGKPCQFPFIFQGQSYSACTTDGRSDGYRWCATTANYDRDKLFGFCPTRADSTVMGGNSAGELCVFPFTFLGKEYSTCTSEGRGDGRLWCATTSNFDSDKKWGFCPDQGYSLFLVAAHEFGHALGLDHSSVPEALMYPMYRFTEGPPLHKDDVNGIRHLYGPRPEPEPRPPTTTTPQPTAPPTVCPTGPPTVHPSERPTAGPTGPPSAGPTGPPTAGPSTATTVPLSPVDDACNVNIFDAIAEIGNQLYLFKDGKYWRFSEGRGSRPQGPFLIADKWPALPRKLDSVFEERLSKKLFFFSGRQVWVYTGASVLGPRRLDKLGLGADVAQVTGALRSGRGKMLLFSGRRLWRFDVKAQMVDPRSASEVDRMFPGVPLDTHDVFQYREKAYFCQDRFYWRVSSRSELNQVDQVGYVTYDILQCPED
compound,measurement,value
CC(C)[C@H](NC(=O)[C@H](CC(=O)O)NC(=O)[C@@H]1CCCN1C(=O)[C@H](CC(N)=O)NC(=O)CNC(=O)[C@H](CS)NC(=O)[C@H](CCCNC(=N)N)NC(=O)[C@@H]1CCCN1)C(=O)N[C@@H](C)C(=O)N[C@@H](CC(N)=O)C(=O)N[C@@H](Cc1ccc(O)cc1)C(=O)N[C@@H](CC(N)=O)C(=O)N[C@@H](Cc1ccccc1)C(=O)N[C@@H](Cc1ccccc1)C(=O)N1CCC[C@H]1C(=O)N[C@@H](CCCNC(=N)N)C(=O)N[C@@H](CCCCN)C(=O)N1CCC[C@H]1C(=O)N[C@@H](CCCCN)C(=O)O [19-mer],conversion of pro-MMP-9 into prodomain and active enzyme by stromilysin,prevents the conversion of pro-MMP-9 into the prodomain and the active enzyme
